Patent US9835614B2, “Measurement of cell growth and drug susceptibility by resonant mass measurement” (Affinity Biosensors, LLC, priority 2013, dated 2017)

System: E. coli
Assay: Resonant mass measurement of growth of E. coli cultures with antibiotics
Type: cell-based

## CC1(C)S[C@@H]2[C@H](NC(=O)[C@H](N)c3ccccc3)C(=O)N2[C@H]1C(=O)O [ampicillin]
E. coli in nutrient broth containing 64 μg/ml, cultures measured cyclically via selection valve
  time development of mass and number of microbes in culture (FIG. 4): grow robustly
E. coli, 64 μg/ml, concentration calculated in each time interval
  microbe number concentration growth curve (number of microbes per ml, FIG. 5(a)): begins at about one hour
At the measured concentration (64 μg/ml)
  diagnostic susceptibility of the E. coli strain: resistant
